Source: the supplement of paper PMC13380429
± gives the standard deviation of the averaged measurements.

How the values were obtained:
Conditions in all cases: 72 h
Vero E6 [1] = assay: drug sensitivity score (DSS) for viability; higher = more toxic; extreme values may be limits of the assay
U2OS [2] = assay: as above
Caco-2 [3] = assay: as above
Calu-3 [4] = assay: as above
HepG2 [5] = assay: as above
Vero E6 [6] = assay: cell viability relative to DMSO; higher = less toxic
U2OS [7] = assay: as above
Caco-2 [8] = assay: as above
Calu-3 [9] = assay: as above
HepG2 [10] = assay: as above
Vero E6 [11] = assay: relative viability EC50 (midpoint between 100% and the lowest measured viability); higher = less toxic
U2OS [12] = assay: as above
Caco-2 [13] = assay: as above
Calu-3 [14] = assay: as above
HepG2 [15] = assay: as above

| SMILES | drug sensitivity score (Vero E6 [1]) | drug sensitivity score (U2OS [2]) | drug sensitivity score (Caco-2 [3]) | drug sensitivity score (Calu-3 [4]) | drug sensitivity score (HepG2 [5]) | cell viability (Vero E6 [6]; 1 nM) [%] | cell viability (Vero E6 [6]; 10 nM) [%] | cell viability (Vero E6 [6]; 100 nM) [%] | cell viability (Vero E6 [6]; 1000 nM) [%] | cell viability (Vero E6 [6]; 10000 nM) [%] | cell viability (U2OS [7]; 1 nM) [%] | cell viability (U2OS [7]; 10 nM) [%] | cell viability (U2OS [7]; 100 nM) [%] | cell viability (U2OS [7]; 1000 nM) [%] | cell viability (U2OS [7]; 10000 nM) [%] | cell viability (Caco-2 [8]; 1 nM) [%] | cell viability (Caco-2 [8]; 10 nM) [%] | cell viability (Caco-2 [8]; 100 nM) [%] | cell viability (Caco-2 [8]; 1000 nM) [%] | cell viability (Caco-2 [8]; 10000 nM) [%] | cell viability (Calu-3 [9]; 1 nM) [%] | cell viability (Calu-3 [9]; 10 nM) [%] | cell viability (Calu-3 [9]; 100 nM) [%] | cell viability (Calu-3 [9]; 1000 nM) [%] | cell viability (Calu-3 [9]; 10000 nM) [%] | cell viability (HepG2 [10]; 1 nM) [%] | cell viability (HepG2 [10]; 10 nM) [%] | cell viability (HepG2 [10]; 100 nM) [%] | cell viability (HepG2 [10]; 1000 nM) [%] | cell viability (HepG2 [10]; 10000 nM) [%] | relative viability EC50 (Vero E6 [11]) [µM] | relative viability EC50 (U2OS [12]) [µM] | relative viability EC50 (Caco-2 [13]) [µM] | relative viability EC50 (Calu-3 [14]) [µM] | relative viability EC50 (HepG2 [15]) [µM] |
| --- | --- | --- | --- | --- | --- | --- | --- | --- | --- | --- | --- | --- | --- | --- | --- | --- | --- | --- | --- | --- | --- | --- | --- | --- | --- | --- | --- | --- | --- | --- | --- | --- | --- | --- | --- |
| CN1CCC(=C2c3ccccc3CCn3c(C=O)cnc32)CC1 [alcaftadine] | 0 | 0 | 0 | 0 | 0 | 89.4 | 99.4 | 87.1 | 91.6 | 107 | 108 | 101 | 101 | 97.7 | 99.6 | 98.1 | 90.6 | 93.8 | 98.5 | 110 | 99.3 | 99.5 | 100 | 87.4 | 105 | 92.7 | 97.2 | 103 | 101 | 104 | > 10 | > 10 | > 10 | > 10 | > 10 |
| C/C=C/c1cc(OC)c(OC)cc1OC [alpha-asarone] | 0 | 0 | 0 | 0 | 0 | 109 | 86.1 | 99.8 | 101 | 104 | 97.3 | 101 | 93.9 | 100 | 100 | 87.7 | 108 | 88.3 | 118 | 93.5 | 94.6 | 99.8 | 102 | 94 | 105 | 91.3 | 107 | 91.9 | 93.3 | 90.3 | > 10 | > 10 | > 10 | > 10 | > 10 |
| CC(=O)OCC(=O)[C@@]12OC3(CCCC3)O[C@@H]1C[C@H]1[C@@H]3CCC4=CC(=O)C=C[C@]4(C)[C@@]3(F)[C@@H](O)C[C@@]12C [amcinonide] | 0 | 0 | 0 | 0.3 | 0 | 102 | 96.2 | 99.6 | 95.6 | 95.4 | 101 | 101 | 92.6 | 97.2 | 91.5 | 104 | 105 | 94.6 | 107 | 104 | 101 | 103 | 93.9 | 89.3 | 97 | 108 | 97.1 | 98.2 | 91.8 | 99.8 | > 10 | > 10 | > 10 | > 10 | > 10 |
| Nc1ccncc1N [amifampridine] | 0 | 0 | 0 | 0 | 0 | 95.7 | 100 | 98.2 | 97.7 | 91.8 | 97.7 | 95.5 | 96.1 | 95 | 96.9 | 99.2 | 97.3 | 91 | 91 | 103 | 106 | 96.9 | 96 | 98.8 | 98.1 | 98.1 | 96.4 | 98 | 93.7 | 89.6 | > 10 | > 10 | > 10 | > 10 | > 10 |
| NCCCCCC(=O)O [aminocaproic-acid] | 0 | 0 | 0 | 0 | 0 | 102 | 106 | 98.6 | 109 | 92.6 | 104 | 97.1 | 101 | 95 | 98.5 | 119 | 99.3 | 102 | 105 | 109 | 105 | 90.6 | 96.9 | 91.3 | 99.4 | 81.2 | 95 | 96.6 | 94.1 | 90.9 | > 10 | > 10 | > 10 | > 10 | > 10 |
| O=C(O)C(F)(F)C(F)(F)C(F)(F)C(F)(F)C(F)(F)C(F)(F)C(F)(F)F [ammonium-perfluorocaprylate] | 0 | 0 | 0 | 0 | 0 | 98.2 | 99.5 | 99.8 | 100 | 96 | 104 | 95.2 | 101 | 92.7 | 104 | 96 | 96 | 107 | 95.4 | 103 | 98 | 110 | 100 | 93.6 | 99.3 | 113 | 105 | 97.3 | 99.5 | 102 | > 10 | > 10 | > 10 | > 10 | > 10 |
| CC(=O)Nc1ccc(OC[C@](C)(O)C(=O)Nc2ccc([N+](=O)[O-])c(C(F)(F)F)c2)cc1 [andarine] | 0 | 0 | 0 | 0 | 0 | 101 | 104 | 101 | 96.3 | 100 | 97.9 | 102 | 94.8 | 98 | 93.9 | 97.4 | 98.6 | 87.3 | 93.5 | 99.2 | 93.1 | 98.1 | 90.2 | 105 | 90.3 | 105 | 98.8 | 100 | 103 | 99 | > 10 | > 10 | > 10 | > 10 | > 10 |
| Nc1ccc([As](=O)(O)O)cc1 [arsanilic-acid] | 0 | 0 | 6 | 0 | 0 | 99.5 | 98.8 | 95.4 | 97.1 | 96.4 | 107 | 107 | 104 | 97.5 | 103 | 108 | 81.2 | 86.6 | 81.9 | 95.8 | 114 | 87.2 | 101 | 98.1 | 97.7 | 110 | 103 | 98.2 | 99.3 | 104 | > 10 | > 10 | > 10 | > 10 | > 10 |
| O=[N+]([O-])c1ncc[nH]1 [azomycin-(2-nitroimidazole)] | 0 | 0 | 0 | 0 | 0 | 99.6 | 102 | 101 | 100 | 100 | 89.5 | 88.7 | 94.9 | 98.6 | 101 | 109 | 104 | 107 | 87 | 108 | 100 | 102 | 94 | 92.5 | 99.8 | 104 | 104 | 102 | 107 | 93.8 | > 10 | > 10 | > 10 | > 10 | > 10 |
| NCC(CC(=O)O)c1ccc(Cl)cc1 (stereo not given) [baclofen] | 0 | 0 | 0 | 0 | 0 | 97.75 ± 0.071 | 96.8 ± 1.7 | 99.7 ± 3.2 | 96.8 ± 3.8 | 104 ± 6.9 | 96.8 ± 1.1 | 101 ± 2.5 | 95.5 ± 2.3 | 101 ± 5.4 | 98.8 ± 8 | 98.6 ± 7.2 | 99.5 ± 3.1 | 95 ± 7.8 | 97.5 ± 3.8 | 100 ± 5 | 98.9 ± 7.8 | 104 ± 5.4 | 98.6 ± 2 | 94.8 ± 4.7 | 104 ± 4.7 | 101 ± 2.9 | 104 ± 9.8 | 106.2 ± 0.99 | 102 ± 7.6 | 99.8 ± 1.3 | > 10 | > 10 | > 10 | > 10 | > 10 |
| NS(=O)(=O)c1cc2c(cc1Cl)N=C(CSCc1ccccc1)NS2(=O)=O [benzthiazide] | 0 | 0 | 0.9 | 0 | 0 | 102 | 98.5 | 98.4 | 101 | 98.9 | 100 | 98.8 | 94.6 | 98.4 | 96 | 103 | 101 | 93.2 | 96.2 | 80.7 | 84.5 | 104 | 101 | 106 | 101 | 105 | 86 | 101 | 94.3 | 89.7 | > 10 | > 10 | > 10 | > 10 | > 10 |
| COc1c2ccoc2cc2oc(=O)ccc12 [bergapten] | 0.6 | 0 | 0 | 0 | 0 | 103 | 105 | 99.8 | 98.4 | 82 | 95.4 | 106 | 93.2 | 97.4 | 102 | 82.4 | 94.1 | 94.3 | 99.4 | 88.3 | 105 | 119 | 108 | 103 | 99 | 95.7 | 85.8 | 90 | 102 | 96.3 | > 10 | > 10 | > 10 | > 10 | > 10 |
| C=C(C)[C@@H]1CC[C@]2(C(=O)O)CC[C@]3(C)[C@H](CC[C@@H]4[C@@]5(C)CC[C@H](OC(=O)CC(C)(C)C(=O)O)C(C)(C)[C@@H]5CC[C@]43C)[C@@H]12 [bevirimat-dimeglumine] | 0 | 0 | 0 | 0 | 0 | 96.8 | 103 | 96.9 | 94.7 | 102 | 99.4 | 98.5 | 99.6 | 98.2 | 96.8 | 92 | 95.6 | 94.1 | 102 | 94.9 | 99.1 | 103 | 102 | 92.9 | 110 | 91.3 | 99.5 | 103 | 94.1 | 96.7 | > 10 | > 10 | > 10 | > 10 | > 10 |
| COC(=O)c1cc(OC)c2c(c1-c1c(C(=O)OC)cc(OC)c3c1OCO3)OCO2 [bifendate] | 0 | 0 | 0 | 0 | 0 | 105 | 105 | 105 | 94.6 | 107 | 99.3 | 99.3 | 97.6 | 99.5 | 101 | 112 | 104 | 98.4 | 102 | 89.6 | 94.4 | 98.1 | 101 | 106 | 104 | 94.8 | 84 | 93.2 | 93.8 | 90.4 | > 10 | > 10 | > 10 | > 10 | > 10 |
